Legend:
[1] = test system: weed plants such as Sinapis alba, Chrysanthemum segetum, Avena sativa, Stellaria media, Echinochloa crus-galli, Lolium multiflorum, Setaria viridis, Abutilon …; experiment: Pre-emergence effect on weeds (greenhouse pot test, visual scoring); format: in vivo; settings: applied pre-emergence at a rate of 0.3 kg or less of active substance per hectare; scored after 3 to 4 weeks in comparison to untreated controls
[2] = test system: weed plants such as Sinapis alba, Echinochloa crus-galli, Lolium multiflorum, Chrysanthemum segetum, Setaria viridis, Abutilon theophrasti, Amaranthus …; experiment: Post-emergence effect on weeds (greenhouse pot test, visual scoring); format: in vivo; settings: applied post-emergence (three-leaf stage) at a rate of 0.3 kg or less of active substance per hectare; scored after about 3 to 4 weeks in comparison to untreated controls

| SMILES | herbicidal action against weed plants (visual scoring of plant damage or emergence damage) [1] | herbicidal action against weed plants (effect scored visually) [2] |
| --- | --- | --- |
| CC(C)Oc1nn(C(=O)NS(=O)(=O)c2cc(C(F)(F)F)ccc2I)c(=O)n1C [Compound 1.838] | very good herbidical action | very good herbicidal action |
| COc1nn(C(=O)NS(=O)(=O)c2cc(C(F)(F)F)ccc2I)c(=O)n1C1CC1 [Compound 1.839] | very good herbidical action | very good herbicidal action |
| CCOc1nn(C(=O)NS(=O)(=O)c2cc(C(F)(F)F)ccc2I)c(=O)n1C1CC1 [Compound 1.840] | very good herbidical action | very good herbicidal action |
| CCCOc1nn(C(=O)NS(=O)(=O)c2cc(C(F)(F)F)ccc2I)c(=O)n1C1CC1 [Compound 1.841] | very good herbidical action | very good herbicidal action |
| COc1nn(C(=O)NS(=O)(=O)c2c(Cl)cc(C(F)(F)F)cc2I)c(=O)n1C [Compound 1.842] | very good herbidical action | very good herbicidal action |
| CCOc1nn(C(=O)NS(=O)(=O)c2c(Cl)cc(C(F)(F)F)cc2I)c(=O)n1C [Compound 1.843] | very good herbidical action | very good herbicidal action |
| CCCOc1nn(C(=O)NS(=O)(=O)c2c(Cl)cc(C(F)(F)F)cc2I)c(=O)n1C [Compound 1.844] | very good herbidical action | very good herbicidal action |
| CC(C)Oc1nn(C(=O)NS(=O)(=O)c2c(Cl)cc(C(F)(F)F)cc2I)c(=O)n1C [Compound 1.845] | very good herbidical action | very good herbicidal action |
| COc1nn(C(=O)NS(=O)(=O)c2c(Cl)cc(C(F)(F)F)cc2I)c(=O)n1C1CC1 [Compound 1.846] | very good herbidical action | very good herbicidal action |
| CCOc1nn(C(=O)NS(=O)(=O)c2c(Cl)cc(C(F)(F)F)cc2I)c(=O)n1C1CC1 [Compound 1.847] | very good herbidical action | very good herbicidal action |
| CCCOc1nn(C(=O)NS(=O)(=O)c2c(Cl)cc(C(F)(F)F)cc2I)c(=O)n1C1CC1 [Compound 1.848] | very good herbidical action | very good herbicidal action |
| COc1nn(C(=O)NS(=O)(=O)c2c(Cl)ccc(Cl)c2I)c(=O)n1C [Compound 1.849] | very good herbidical action | very good herbicidal action |
| CCOc1nn(C(=O)NS(=O)(=O)c2c(Cl)ccc(Cl)c2I)c(=O)n1C [Compound 1.850] | very good herbidical action | very good herbicidal action |
| CCCOc1nn(C(=O)NS(=O)(=O)c2c(Cl)ccc(Cl)c2I)c(=O)n1C [Compound 1.851] | very good herbidical action | very good herbicidal action |
| CC(C)Oc1nn(C(=O)NS(=O)(=O)c2c(Cl)ccc(Cl)c2I)c(=O)n1C [Compound 1.852] | very good herbidical action | very good herbicidal action |
| COc1nn(C(=O)NS(=O)(=O)c2c(Cl)ccc(Cl)c2I)c(=O)n1C1CC1 [Compound 1.853] | very good herbidical action | very good herbicidal action |
| CCOc1nn(C(=O)NS(=O)(=O)c2c(Cl)ccc(Cl)c2I)c(=O)n1C1CC1 [Compound 1.854] | very good herbidical action | very good herbicidal action |
| CCOc1nn(C(=O)NS(=O)(=O)c2ccc(C)c(F)c2I)c(=O)n1C [Compound 1.856] | very good herbidical action | very good herbicidal action |
| CCCOc1nn(C(=O)NS(=O)(=O)c2ccc(C)c(F)c2I)c(=O)n1C [Compound 1.857] | very good herbidical action | very good herbicidal action |
| Cc1ccc(S(=O)(=O)NC(=O)n2nc(OC(C)C)n(C)c2=O)c(I)c1F [Compound 1.858] | very good herbidical action | very good herbicidal action |
| COc1nn(C(=O)NS(=O)(=O)c2ccc(C)c(F)c2I)c(=O)n1C1CC1 [Compound 1.859] | very good herbidical action | very good herbicidal action |
| CCOc1nn(C(=O)NS(=O)(=O)c2ccc(C)c(F)c2I)c(=O)n1C1CC1 [Compound 1.860] | very good herbidical action | very good herbicidal action |
| CCCOc1nn(C(=O)NS(=O)(=O)c2ccc(C)c(F)c2I)c(=O)n1C1CC1 [Compound 1.861] | very good herbidical action | very good herbicidal action |
| COc1nn(C(=O)NS(=O)(=O)c2cc(C)c(C)cc2I)c(=O)n1C [Compound 1.862] | very good herbidical action | very good herbicidal action |
| CCOc1nn(C(=O)NS(=O)(=O)c2cc(C)c(C)cc2I)c(=O)n1C [Compound 1.863] | very good herbidical action | very good herbicidal action |
| CCCOc1nn(C(=O)NS(=O)(=O)c2cc(C)c(C)cc2I)c(=O)n1C [Compound 1.864] | very good herbidical action | very good herbicidal action |
| Cc1cc(I)c(S(=O)(=O)NC(=O)n2nc(OC(C)C)n(C)c2=O)cc1C [Compound 1.865] | very good herbidical action | very good herbicidal action |
| COc1nn(C(=O)NS(=O)(=O)c2cc(C)c(C)cc2I)c(=O)n1C1CC1 [Compound 1.866] | very good herbidical action | very good herbicidal action |

Source: US7855166B2, “Sulfonylamino(thio)carbonyl compounds” (Bayer Cropscience GmbH, priority 2005, dated 2010)
